Assay results taken from patent US10100061B2, “Oxazepine compound and agricultural/horticultural insecticide containing said compound as active ingredient, and method for using the same” (NIHON NOHYAKU CO., LTD., priority 2014, dated 2018).

Legend:
[1] = system: Green Peach Aphid (Myzus Persicae); assay: Test of preventive value against green peach aphid (Test Example 1); type: in vivo; conditions: 500 ppm, sprayed over stems and leaves of potted Chinese cabbages, sixth day after spraying
Description: Test of Preventive Value Against Green Peach Aphid (Myzus Persicae)
Chinese cabbages were planted in plastic pots, each with a size of 8 cm in diameter and 8 cm in height, after which green peach aphids were propagated and the number of parasitic insects was examined in each pot. An oxazepine compound or salt thereof expressed by General Formula (I) according to the present invention was dispersed in water and the dispersion was diluted to 500 ppm in the form of a reagent, after which the reagent was sprayed over stems and leaves of potted Chinese cabbages and let dry under wind, and the pots were kept in a greenhouse, and on the sixth day after the reagent was sprayed, the number of green peach aphids living parasitically on each Chinese cabbage was examined and the preventive value was calculated based on the formula below, and judgment was made according to the criteria below. Preventive value=100−{(T×Ca)/(Ta×C)}×100 [Mathematical Formula 1] • Ta: Number of parasitic insects inside the treatment area before spraying • T: Number of parasitic insects inside the treatment area after spraying • Ca: Number of parasitic insects inside the non-treatment area before spraying • C: Number of parasitic insects inside the non-treatment area after spraying Judgment Criteria • A - - - Preventive value: 100% • B - - - Preventive value: 99%˜90% • C - - - Preventive value: 89%˜80% • D - - - Preventive value: 79%˜50%

[2] = system: Small Brown Planthopper (Laodelphax Striatellus); assay: Test of insecticidal efficacy against small brown planthopper (Test Example 2); type: in vivo; conditions: 500 ppm, rice plants soaked 30 seconds, third-instar larvae, eight days after inoculation; criteria same as in Test Example 1
Description: Test of Insecticidal Efficacy Against Small Brown Planthopper (Laodelphax Striatellus)

Compound | Preventive value, judgment [1] | Corrected insect mortality, judgment [2]
C#CCN1C(=O)c2nn(-c3cncc(F)c3)cc2Oc2cc(F)ccc21 [1-81] | A to D | A to D
S=C1Nc2ccccc2Oc2cn(-c3cccnc3)nc21 [2-1] | A to D | A to D
Fc1ccc2c(c1)NC(=S)c1nn(-c3cccnc3)cc1O2 [2-5] | A to D | A to D
c1cncc(-n2cc3c(n2)CNc2ccccc2O3)c1 [3-1] | A to D | A to D
CN1C(=O)c2nn(-c3cccnc3)cc2Oc2ncc(C(F)(F)F)cc21 [4-10] | A to D | A to D
CN1C(=O)c2nn(-c3cccnc3)cc2Oc2cnccc21 [5-2] | A to D | A to D
O=C1NC=COc2cn(-c3cccnc3)nc21 [7-1] | A to D | A to D
CN1C=COc2cn(-c3cccnc3)nc2C1=O [7-2] | A to D | A to D
CSCN1C(=O)c2nn(-c3cccnc3)cc2Oc2ccccc21 [8-2] | A to D | A to D
CS(=O)(=O)CN1C(=O)c2nn(-c3cccnc3)cc2Oc2ccccc21 [8-4] | A to D | A to D
COC(CN1C(=O)c2nn(-c3cccnc3)cc2Oc2ccccc21)OC [8-10] | A to D | A to D
O=CN1C(=O)c2nn(-c3cccnc3)cc2Oc2ccccc21 [8-12] | A to D | A to D
COC(=O)N1C(=O)c2nn(-c3cccnc3)cc2Oc2ccccc21 [8-13] | A to D | A to D
O=C1c2nn(-c3cccnc3)cc2Oc2ccccc2N1CC(F)(F)C(F)(F)F [8-20] | A to D | A to D
CSCN1C(=O)c2nn(-c3cccnc3)cc2Oc2cc(F)ccc21 [8-24] | A to D | A to D
COCN1C(=O)c2nn(-c3cccnc3)cc2Oc2cc(F)ccc21 [8-25] | A to D | A to D
CCOCN1C(=O)c2nn(-c3cccnc3)cc2Oc2cc(F)ccc21 [8-26] | A to D | A to D
O=C1OCCC1N1C(=O)c2nn(-c3cccnc3)cc2Oc2cc(F)ccc21 (centres unmarked) [8-31] | A to D | A to D
CC(C(=O)OC(C)(C)C)N1C(=O)c2nn(-c3cccnc3)cc2Oc2cc(F)ccc21 (centres unmarked) [8-32] | A to D | A to D
O=C1c2nn(-c3cccnc3)cc2Oc2cc(F)ccc2N1CCCCBr [8-34] | A to D | A to D
C=CCN1C(=O)c2nn(-c3cccnc3)cc2Oc2ccc(F)cc21 [8-35] | A to D | A to D
CCCCCCCCCCCCN1C(=O)c2nn(-c3cccnc3)cc2Oc2ccc(F)cc21 [8-37] | A to D | A to D
O=C1c2nn(-c3cccnc3)cc2Oc2ccc(F)cc2N1CCCl [8-38] | A to D | A to D
O=C1c2nn(-c3cccnc3)cc2Oc2ccc(F)cc2N1CCCCBr [8-40] | A to D | A to D
O=C1c2nn(-c3cccnc3)cc2Oc2ccc(F)cc2N1CC1CCCO1 (centres unmarked) [8-41] | A to D | A to D

Compound | Preventive value, judgment [1] | Corrected insect mortality, judgment [2]
COC(CN1C(=O)c2nn(-c3cccnc3)cc2Oc2ccc(F)cc21)OC [8-42] | A to D | A to D
COCN1C(=O)c2nn(-c3cccnc3)cc2Oc2ccc(F)cc21 [8-45] | A to D | A to D
CCOCN1C(=O)c2nn(-c3cccnc3)cc2Oc2ccc(F)cc21 [8-46] | A to D | A to D
CS(=O)(=O)CN1C(=O)c2nn(-c3cccnc3)cc2Oc2ccc(F)cc21 [8-49] | A to D | A to D
O=C1Nc2cc(Cl)ccc2Oc2cn(-c3cccnc3)nc21 [8-54] | A to D | A to D
C#CCN1C(=O)c2nn(-c3cccnc3)cc2Oc2ccc(Cl)cc21 [8-56] | A to D | A to D
O=C1Nc2cc(Br)ccc2Oc2cn(-c3cccnc3)nc21 [8-62] | A to D | A to D
CN1C(=O)c2nn(-c3ccc[n+]([O-])c3)cc2Oc2ccccc21 [9-1] | A to D | A to D
O=C1Nc2ccccc2Oc2c1nn(-c1cccnc1)c2F [9-3] | A to D | A to D
ClC1=Nc2ccccc2Oc2cn(-c3cccnc3)nc21 [11-1] | A to D | A to D
NC1=Nc2ccccc2Oc2cn(-c3cccnc3)nc21 [11-5] | A to D | A to D
c1cncc(-n2cc3c(n2)C(NC2CC2)=Nc2ccccc2O3)c1 [11-7] | A to D | A to D
ONC1=Nc2ccccc2Oc2cn(-c3cccnc3)nc21 [11-9] | A to D | A to D
CN(C)C1=Nc2ccccc2Oc2cn(-c3cccnc3)nc21 [11-10] | A to D | A to D
C=CCN(CC=C)C1=Nc2cc(F)ccc2Oc2cn(-c3cccnc3)nc21 [11-11] | A to D | A to D
CSCCOC1=Nc2ccc(C(F)(C(F)(F)F)C(F)(F)F)cc2Oc2cn(-c3cccnc3)nc21 [11-17] | A to D | A to D
CSC1=Nc2cc(F)ccc2Oc2cn(-c3cccnc3)nc21 [11-18] | A to D | A to D
CCSC1=Nc2cc(F)ccc2Oc2cn(-c3cccnc3)nc21 [11-19] | A to D | A to D
CN1C(=O)c2nn(-c3cccnc3)cc2Oc2ccncc21 [12-1] | A to D | A to D
CN1C(=O)c2nn(-c3cccnc3)cc2Oc2nccnc21 [13-1] | A to D | A to D
Cc1nn(C)c2c1N(CC#N)C(=O)c1nn(-c3cccnc3)cc1O2 [14-5] | A to D | A to D
O=C1Nc2ccccc2Oc2cn(-c3cccnc3)nc21 [Compound No. 1-1, 2-(pyridine-3-yl)-2H-benzo [b]pyrazolo [3,4-f][1,4]oxazepine-10 (9H)-one] | A to D | A to D
CN1C(=O)c2nn(-c3cccnc3)cc2Oc2ccccc21 [Compound No. 1-2, 9-methyl-2-(pyridine-3-yl)-2H-benzo [b]pyrazolo [3,4-f][1,4]oxazepine-10 (9H)-one] | A to D | A to D
CN1C(=O)c2nn(-c3cccnc3)cc2Oc2cc(F)ccc21 [Compound No. 1-11, 6-fluoro-9-methyl-2-(pyridine-3-yl)-2H-benzo [b]pyrazolo [3,4-f][1,4]oxazepine-10 (9H)-one] | A to D | A to D
